Data on three molecules can be found in US12433510B2, “Methods and systems for improved collection of interstitial fluid” (Georgia Tech Research Corporation, priority 2017, dated 2025).

Where two headings read alike, the source gives them in different places.

In series [1] the test system is plasma proteins.
The conditions of series [2]: human, in vivo.
Series [3] is described as follows: clinical. The following applies: human, in vivo.
Series [4] can be described thus: in vivo. The settings on record: female, Wistar, rat, 1 mg/kg; for AUC: mean ± SD, n = 6 rats.
[5] abbreviates: iv, ISF, 1 mg/kg bolus intravenous.
Where [6] appears, read: iv, Serum, 1 mg/kg bolus intravenous.

For `CCN=c1cc2oc3cc(NCC)c(C)cc3c(-c3ccccc3C(=O)OCC)c-2cc1C.Cl` [R6G, rhodamine 6G], in series [1], the “R6G concentration in protein-free serum samples” value was found to be 0.05 ± 0.03 µM, the “R6G concentration in serum prior to filtration” value was 9.6 ± 4.2 µM and the “binding to plasma proteins” value is listed as “strongly binds to plasma proteins”.
As for `Cn1c(=O)c2c(ncn2C)n(C)c1=O` [caffeine], in series [2], the CL is 4.7 L/h and the t1/2 worked out at 450 min. Also, in series [2] (43 mg), the highest concentration (Cmax) – broadly, the maximum level reached in the sampled fluid or tissue – amounted to 1030 ng/mL. Also, in series [3] (43 mg, Cmax), the Cmax is 1060 ng/mL. Besides, the AUC(0-t) – broadly, exposure summed from dosing to a finite time, without extrapolation to infinity – in series [3] (AUC(0-8 h)) worked out at 84 ng·h/mL. Also, the clearance (as a rule, the volume of plasma or blood freed of the substance per unit of time) in series [3] (CL) is 68.3 mL/min. The half-life (in general, how long it takes for the measured level to halve) in series [3] (t1/2) was 564 min.
Take `CN[C@H](CC(C)C)C(=O)N[C@H]1C(=O)N[C@@H](CC(N)=O)C(=O)N[C@H]2C(=O)N[C@H]3C(=O)N[C@H](C(=O)N[C@H](C(=O)O)c4cc(O)cc(O)c4-c4cc3ccc4O)[C@H](O)c3ccc(c(Cl)c3)Oc3cc2cc(c3O[C@@H]2O[C@H](CO)[C@@H](O)[C@H](O)[C@H]2O[C@H]2C[C@](C)(N)[C@H](O)[C@H](C)O2)Oc2ccc(cc2Cl)[C@H]1O` [vancomycin]: the “Tmax Ratio (ISF:serum)” value (1 mg/kg bolus intravenous) amounted to 2.7 ± 1.6. The “slope of linear correlation of paired ISF and serum drug levels” value (R2=0.40) is on record as 0.75±0.06. Also, the time to peak (Tmax) – broadly, the time at which the peak concentration occurs – in series [4] (delay in time to peak concentration (Tmax) in ISF compared to serum) is about 17 min; in series [4] (iv, Tmax, ISF, 1 mg/kg bolus intravenous), 26.6 min; in series [4] (iv, Tmax, Serum, 1 mg/kg bolus intravenous), 10 min. Also, the concentration ratio (Kp) (commonly the ratio of the level in a tissue or fluid to that in plasma or blood) in series [4] (iv, AUC Ratio (ISF:serum), 1 mg/kg bolus intravenous) came out at 1.3 ± 0.2; in series [4] (iv, Cmax Ratio (ISF:serum), 1 mg/kg bolus intravenous) it was 0.9 ± 0.2. The AUC – broadly, the area under the concentration-time curve, a measure of exposure – is 2300 ng·h/mL in series [4] (setting [5]) and 1770 ng·h/mL in series [4] (setting [6]). The Cmax in series [4] (setting [5]) was 2500 ± 1000 ng/mL; in series [4] (setting [6]), 2600 ± 600 ng/mL.
